Data taken from patent US7560597B2, “2′,4′-dichloro-biphenyl-4-yl-hydroxy-ketones and related compounds and their use as therapeutic agents” (The University Court of the University of Aberdeen, priority 2007, dated 2009).
“Also recorded” adds a separate entry of the source.

Key:
[1] = tested on: macrophage cell line J774; experiment: Alamar Blue macrophage J774 viability assay; format: cell-based; conditions: Mus musculus, J774, 72 h, 72 hours culture with compound
Method: Initial screening of candidate compounds was performed using viability assays on cultures of the macrophage cell line J774, which have been used before as a model system for osteoclast survival (see, e.g., Luckman et al., 1998). The assays are based on the survival of the J774 macrophage cell line; macrophages are closely related to osteoclasts, and contain similar high levels of esterase activity.
J774 cells were plated at 10^4 cells per well in 150 μL αMEM (α Modified Eagle Medium) in 96-well plates and grown overnight. The next day, test compounds were added to the cultures, and cultures were continued for another 72 hours. At the end of the culture period, cell survival was determined using an Alamar Blue assay as previously described (see, e.g., Nociari et al., 1998).
Alamar Blue is an oxidation-reduction sensitive indicator. The dye itself is in the oxidised state, which is blue and non-fluorescent. The dye can accept electrons from reducing species, such as NADPH and FADH, to form a reduced dye species, which is red and fluorescent. Thus the transformation from oxidised form to reduced form can be measured by fluorimetric or colourimetric means. For fluorescence measurements, 530-560 nm excitation and 590 nm emission wavelengths are typically used. For colourimetric measurements, absorbance is measured at 570 nm (reduced form) and 600 nm (oxidised form) and a simple calculation performed to determine the relative quantities of the two species.
A high ratio of the reducing species, NADPH and FADH, to the corresponding oxidised species, NADP and FAD, is an indicator that cells are proliferating and viable. A low ratio indicates cells that are quiescent or non-viable.
Briefly, Alamar Blue (Biosource International) was added undiluted to the each well (1:10 v/v, 15 μL). The plate was incubated at 37° C. for 3-4 hours and the fluorescence was measured at 590 nm, with a 25 nm bandwidth. A high reading indicated cells with normal viability, and a low reading indicated cells that have been damaged and are no longer proliferating normally. The controls gave a high fluorescence reading, indicating a high number of live, healthy cells. A potent test compound gave a low fluorescence reading. The average results for each test compound (n=5) were expressed as a percent (%) of the average control value.
Addition of Compounds. All of the compounds studied were made up as 100 mM solutions in DMSO. These stock solutions were then diluted 100 or 1000× in culture medium (αMEM). From these 1 mM or 100 μM solutions, convenient quantities (3-15 μL) were added directly to the wells so as to give the desired final compound concentration.

[2] = In vivo pharmacokinetics: serum levels after oral dosage (HPLC/UV); set-up: species or system rat; conditions: rats, 10 mg/kg oral
Method: Absorption and metabolic stability were studied using an in vivo pharmacokinetics assay. Drug levels assessed using HPLC/UV.
Following overnight starvation, male Wistar rats (250 g) were given a bolus gavage of 500 μL of a solution of test compound in corn oil (5 mg/ml). Blood samples (1 mL, whole blood) were taken at various time intervals and the serum collected following centrifugation. Samples were frozen until required for analysis.
Ethyl acetate (4 mL) was added to the defrosted serum and the samples mixed for 20 minutes. Following centrifugation, the ethyl acetate layer was collected and evaporated under a stream of nitrogen. The residue was reconstituted in mobile phase and 20 μL injected onto the chromatogram.
Standard calibration curves were prepared for each of the test compounds and were linear in the range of 1 ng/mL to 250 ng/mL.
• Column: HIRPB C18 (150×4.6 mm). • Mobile phase: 60% 25 mM ammonium acetate, pH 4; 40% acetonitrile. • Flow rate: 1 mL/minute. • Detection: Peaks detected by UV absorption at λmax in the range of 240-275 nm.
Serum levels of compounds ABD328, ABD345 and ABD430 following oral dosage (10 mg/kg) over the course of 60 minutes were investigated in vivo in rats using an HPLC/UV detection system, as described above.

[3] = tested on: mouse collagen-induced arthritis model; experiment: Collagen-induced arthritis model, joint inflammation scoring; format: in vivo; conditions: for total joint score (sum of joint inflammation scores of the study group): 21-day period, n=10, untreated group 47, FIG. 3
Method: Collagen-induced arthritis (CIA) was induced in 8-week old male DBA/1 mice, by intradermal injection of 100 μL of chicken collagen type II (2 mg/mL) suspended in complete Freund's adjuvant supplemented with 2 mg/mL devitalised M. Tuberculosis into the base of the tail. This will lead to joint inflammation in >80% of the animals within 4 weeks. Treatment with ABD328 (10 mg/kg/day, orally or i.p., delivered in corn oil) was started when joint inflammation became apparent in the first animals (in this experiment 15 days after injection), and the experiment was terminated 3 weeks later. For each animal, the scores for all four joints were added (maximal score=12).
Compound ABD328 (dosage 10 mg/kg, i.p. or oral) was investigated in vivo using the collagen-induced arthritis model, assessed using joint inflammation severity scoring, as described above.

[4] = tested on: mouse-ovariectomy bone loss model; experiment: Ovariectomy induced bone loss (pQCT trabecular bone density); format: in vivo; conditions: OVX mice, 20 mg/kg orally
Method: Animals. Female 9 week-old C57/BL6 mice were used. Animals were housed in a designated animal facility and routinely maintained on a 12 hour:12 hour light:dark cycle and given ad libitum access to food and water.
Ovariectomy induced bone loss. Bilateral ovariectomy (Ovx) was performed under general anaesthesia. Sham ovariectomy (Sham) was similarly performed but with externalisation and replacement of the ovaries. Animals were given a daily injection of (a) test compound (e.g., 10 mg/kg) in vehicle (corn oil), or (b) vehicle (corn oil). After 21 days, the animals were killed, and the tibial bones were dissected and used for bone mineral density measurements and histomorphometric analysis (see below).
Bone Mineral Measurements. Measurements of bone mineral density (BMD) at the left proximal tibial metaphysis were determined by peripheral quantitative computed tomography (pQCT) using an XCT Research M bone densitometer with a voxel size of 70 μm and analysis software version 5.1.4 (Stratec Medizintechnik, Pforzheim, Germany). […]
Statistical Analyses. […] Significant differences between groups were determined by ANOVA followed by post-hoc testing using Dunnet's post-test. […]
Compounds ABD68, ABD328 and ABD355 (dosage 20 mg/kg, orally) were investigated in vivo using ovariectomy induced bone loss assessed using peripheral quantitative computed tomography, as described above.

[5] = Table 3 (variation of W), J774 cells

OCCCCC[C@H](O)c1ccc(-c2ccc(Cl)cc2Cl)cc1 [ABD513, (S)-1-(2′,4′-Dichloro-biphenyl-4-yl)-hexane-1,6-diol]
IC50 [1, 5]: 11 ± 4 µM

OCCCCCC(O)c1ccc(-c2ccc(Cl)cc2Cl)cc1 (racemic) [ABD300, (R,S)-1-(2′,4′-Dichloro-biphenyl-4-yl)-hexane-1,6-diol]
IC50 [1, 5]: 8 ± 2 µM

O=C(CCCCCO)c1ccc(-c2ccc(Cl)cc2Cl)cc1 [ABD328, 1-(2′,4′-Dichloro-biphenyl-4-yl)-6-hydroxy-hexan-1-one]
metabolic stability (in words) ([2]; in vivo serum levels): good degree of metabolic stability | oral absorption (blood serum levels), in words ([2]; over 60 minutes, FIG. 2): well absorbed | total joint score (sum of joint inflammation scores of the study group) ([3]; 10 mg/kg/day i.p.): 5 | total joint score (sum of joint inflammation scores of the study group) ([3]; 10 mg/kg/day orally): 13 | effect on collagen-induced arthritis / inflammation (in words) ([3]; 10 mg/kg/day, i.p. or oral): fully reverse the effects of collagen-induced arthritis; also recorded: prevents inflammation | effect on ovariectomy-induced bone loss (in words) ([4]; 20 mg/kg): fully reverse the effects of ovariectomy-induced bone loss; also recorded: fully prevents bone loss | increase in trabecular bone density ([4]; relative to the control group (OVX no drug: 34% decrease), FIG. 1): 6% | IC50 ([1]; Table 2, J774 cells): 12 ± 2 µM | IC50 [1, 5]: 11 ± 3 µM

OCCCCC/C(=N\O)c1ccc(-c2ccc(Cl)cc2Cl)cc1 [ABD468, 1-(2′,4′-Dichloro-biphenyl-4-yl)-6-hydroxy-hexan-1-one oxime]
IC50 [1, 5]: 7 ± 2 µM

OCCCCC[C@@H](O)c1ccc(-c2ccc(Cl)cc2Cl)cc1 [ABD511, (R)-1-(2′,4′-Dichloro-biphenyl-4-yl)-hexane-1,6-diol]
IC50 [1, 5]: 4 ± 2 µM
